According to ChEMBL document CHEMBL3885861, “Open TG-GATES”:

Organism: Rattus norvegicus
Assay: Open TG-GATES - Regimen: Single
Type: toxicity, organism-based, Sprague-Dawley
Set-up: regimen Single, gender Male, age 6 weeks
Details: in vivo, po, route gavage; for KIDNEY_L / KIDNEY_R / KIDNEY_TOTAL: tissue Kidney; for LIVER: tissue Liver; for ALT / AST / BUN / CRE / Cl / DBIL / GLC / IP / LDH / Na / RALB / TBIL / TC / TG / TP / gamma-GTP: tissue Plasma
[1] = 6 mg/kg, 9 h, tissue Blood, dose level Low
[2] = 6 mg/kg, 24 h, tissue Blood, dose level Low
[3] = 20 mg/kg, 3 h, tissue Blood, dose level Middle

CC/C(=C(\c1ccccc1)c1ccc(OCCN(C)C)cc1)c1ccccc1 [TAMOXIFEN]
Eos [1]: 1%
Fbg [1]: 248.8 mg/dL
Hb [1]: 12.8 g/dL
Lym [1]: 68.8%
MCH [1]: 21.5 pg
MCHC [1]: 33.5%
MCV [1]: 64.3 fL
Mono [1]: 2.6%
Neu [1]: 27.2%
PT [1]: 12.5 s
Plat [1]: 116.1 x10_4/uL
RBC [1]: 597.4 x10_4/ul
WBC [1]: 68.7 x10_2/uL
KIDNEY_L (6 mg/kg, 9 h, dose level Low): 0.8 g
KIDNEY_R (6 mg/kg, 9 h, dose level Low): 0.8 g
KIDNEY_TOTAL (6 mg/kg, 9 h, dose level Low): 1.6 g
LIVER (6 mg/kg, 9 h, dose level Low): 7.1 g
ALT (6 mg/kg, 9 h, dose level Low): 39 IU/L
AST (6 mg/kg, 9 h, dose level Low): 77.2 IU/L
BUN (6 mg/kg, 9 h, dose level Low): 9.6 mg/dL
CRE (6 mg/kg, 9 h, dose level Low): 0.2 mg/dL
Cl (6 mg/kg, 9 h, dose level Low): 108.2 meq/L
DBIL (6 mg/kg, 9 h, dose level Low): 0.01 mg/dL
GLC (6 mg/kg, 9 h, dose level Low): 186.6 mg/dL
IP (6 mg/kg, 9 h, dose level Low): 11 mg/dL
LDH (6 mg/kg, 9 h, dose level Low): 62.4 IU/L
Na (6 mg/kg, 9 h, dose level Low): 143.6 meq/L
RALB (6 mg/kg, 9 h, dose level Low): 2.5 g/dL
TBIL (6 mg/kg, 9 h, dose level Low): 0.046 mg/dL
TC (6 mg/kg, 9 h, dose level Low): 67.2 mg/dL
TG (6 mg/kg, 9 h, dose level Low): 33.4 mg/dL
TP (6 mg/kg, 9 h, dose level Low): 5.3 g/dL
gamma-GTP (6 mg/kg, 9 h, dose level Low): 1 IU/L
TERMINAL_BW (6 mg/kg, 24 h, dose level Low): 194.3 g
APTT [2]: 17.4 s
Bas [2]: 0%
Eos [2]: 1.2%
Fbg [2]: 250.2 mg/dL
Hb [2]: 12.8 g/dL
Ht [2]: 38.6%
Lym [2]: 79%
MCH [2]: 20.9 pg
MCHC [2]: 33.2%
MCV [2]: 62.9 fL
Mono [2]: 3.2%
Neu [2]: 16.4%
PT [2]: 12.8 s
Plat [2]: 113.7 x10_4/uL
RBC [2]: 613.8 x10_4/ul
WBC [2]: 80.8 x10_2/uL
KIDNEY_L (6 mg/kg, 24 h, dose level Low): 0.9 g
KIDNEY_R (6 mg/kg, 24 h, dose level Low): 0.9 g
KIDNEY_TOTAL (6 mg/kg, 24 h, dose level Low): 1.7 g
LIVER (6 mg/kg, 24 h, dose level Low): 8.7 g
ALT (6 mg/kg, 24 h, dose level Low): 51 IU/L
AST (6 mg/kg, 24 h, dose level Low): 79.8 IU/L
BUN (6 mg/kg, 24 h, dose level Low): 12.8 mg/dL
CRE (6 mg/kg, 24 h, dose level Low): 0.2 mg/dL
Cl (6 mg/kg, 24 h, dose level Low): 108 meq/L
DBIL (6 mg/kg, 24 h, dose level Low): 0.012 mg/dL
GLC (6 mg/kg, 24 h, dose level Low): 184.4 mg/dL
IP (6 mg/kg, 24 h, dose level Low): 8 mg/dL
LDH (6 mg/kg, 24 h, dose level Low): 55.2 IU/L
Na (6 mg/kg, 24 h, dose level Low): 142.4 meq/L
RALB (6 mg/kg, 24 h, dose level Low): 2.5 g/dL
TBIL (6 mg/kg, 24 h, dose level Low): 0.036 mg/dL
TC (6 mg/kg, 24 h, dose level Low): 61.6 mg/dL
TG (6 mg/kg, 24 h, dose level Low): 64.2 mg/dL
TP (6 mg/kg, 24 h, dose level Low): 5.4 g/dL
gamma-GTP (6 mg/kg, 24 h, dose level Low): 1.4 IU/L
TERMINAL_BW (20 mg/kg, 3 h, dose level Middle): 194.9 g
APTT [3]: 16.5 s
Bas [3]: 0.2%
